This note sets out measurements from US20260115185A1, “QUINOLINE DERIVATIVES WHICH ACT AS KAPPA-OPIOID RECEPTOR ANTAGONISTS” (The Scripps Research Institute, priority 2023, published 2026).

Test [1] addresses T1, kappa opioid receptor (KOR) (Homo sapiens, UniProt P41145).
T1 construct: host or cells: U2OS (Tango OPRK1-bla U2OS)
Briefly: OPRKappa 1 Tango B-Arrestin Assay, antagonist mode (Tango OPRK1-bla U2OS cells, U50488 EC80 challenge). The class given is cell-based. Particulars: for Selectivity (MOR/KOR): Kappa selectivity, MOR IC50 / KOR IC50; for IC50: antagonist mode, Tango OPRK1-bla U2OS cells, 6 nM U50488 challenge. The method, boiled down: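 Tango OPRK1-bla U2OS cells, β-arrestin recruitment read as β-lactamase FRET (CCF4-AM, 460/590 nm emission). Compounds, 10-point 1:3 series from nominal 10 µM in quadruplicate, preincubated 30 min at 37 °C, then challenged with U50488 at 6 nM final (EC80) for 4 h; percent inhibition from median ratio.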

Test [2] concerns the target T2, mu opioid receptor (MOR) (Homo sapiens, UniProt P35372).
T2 construct: host or cells: U2OS (Discover X OPRMu1-U2OS, PathHunter)
Briefly: OPRMu1 Discover X β-arrestin Assay, antagonist mode (U2OS cells, DAMGO EC80 challenge). In kind it is cell-based. The method, boiled down: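 PathHunter U2OS cells with β-gal fragment-complementation readout for β-arrestin recruitment to OPRMu1. Cells were preincubated with compound (10-point, 1:3 series from nominal 10 micromolar) for 30 min at 37 °C, then challenged with 303 nM DAMGO (EC80) for 3 h. Luminescence gave percent inhibition.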

T2 sequence (P35372 whole entry): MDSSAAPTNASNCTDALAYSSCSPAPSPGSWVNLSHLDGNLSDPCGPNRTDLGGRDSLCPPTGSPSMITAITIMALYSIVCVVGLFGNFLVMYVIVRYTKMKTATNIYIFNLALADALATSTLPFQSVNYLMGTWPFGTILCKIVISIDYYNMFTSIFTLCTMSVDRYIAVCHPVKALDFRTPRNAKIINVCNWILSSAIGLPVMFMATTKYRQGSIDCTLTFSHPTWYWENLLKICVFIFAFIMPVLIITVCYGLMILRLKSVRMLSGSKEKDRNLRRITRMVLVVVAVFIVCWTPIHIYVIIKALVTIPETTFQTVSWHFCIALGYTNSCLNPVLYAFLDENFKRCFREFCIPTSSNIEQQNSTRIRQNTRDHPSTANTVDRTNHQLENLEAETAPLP
T1 sequence (P41145 whole entry): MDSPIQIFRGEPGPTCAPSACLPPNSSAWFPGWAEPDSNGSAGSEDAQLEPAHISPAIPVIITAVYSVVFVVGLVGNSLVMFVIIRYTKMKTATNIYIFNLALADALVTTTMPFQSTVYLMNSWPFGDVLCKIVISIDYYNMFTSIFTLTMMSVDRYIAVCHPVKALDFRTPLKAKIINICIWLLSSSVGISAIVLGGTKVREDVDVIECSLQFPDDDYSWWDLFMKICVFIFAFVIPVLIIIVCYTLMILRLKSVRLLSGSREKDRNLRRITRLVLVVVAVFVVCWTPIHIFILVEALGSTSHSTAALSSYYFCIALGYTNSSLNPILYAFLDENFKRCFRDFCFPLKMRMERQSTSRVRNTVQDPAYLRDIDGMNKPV

Turning to `CCc1cc(F)c2nc(N3CCN(CC4CCOCC4)[C@H](C)C3)c(-c3nc(C)no3)c(C)c2c1` [Compound 39, (R)-5-(6-ethyl-8-fluoro-4-methyl-2-(3-methyl-4-((tetrahydro-2H-pyran-4-yl)methyl)piperazin-1-yl)quinolin-3-yl)-3-methyl-1,2,4-oxadiazole], the “Selectivity (MOR/KOR)” value in test [1] is “++ (between 10- and 100-fold selectivity)”. Also, the IC50 in test [1] is not below 100 nM; in test [2], more than 1000 nM.

For `CCc1cc(F)c2nc(N3CCN(C4CC5(COC5)C4)C[C@H]3C)c(-c3nc(C)no3)c(C)c2c1` [Compound 41], in test [1], the “Selectivity (MOR/KOR)” value was “+++ (between 100- to 1000-fold selective)” and the IC50 was in the range of 10 to 100 nM. In addition, the IC50 in test [2] is more than 1000 nM.

As for `CCc1cc(F)c2nc(N3CCN(C4CC5(CCOCC5)C4)C[C@H]3C)c(-c3nc(C)no3)c(C)c2c1` [Compound 42], in test [1], the “Selectivity (MOR/KOR)” value is “+++ (between 100- to 1000-fold selective)” and the IC50 lay in the range of 10 to 100 nM. Besides, in test [2], the IC50 was more than 1000 nM.

`CCc1cc(F)c2nc(N3CCN(C(=O)CCN(C)C)C[C@H]3C)c(-c3nc(C)no3)c(C)c2c1` [Compound 43]: in test [1], the “Selectivity (MOR/KOR)” value is “++ (between 10- and 100-fold selectivity)”; the IC50 fell in the range of 10 to 100 nM. This compound returned a 50% inhibitory concentration (IC50) in test [2] of more than 1000 nM.

`CCc1cc(F)c2nc(N3CCN(C(=O)CN(C)C)C[C@H]3C)c(-c3nc(C)no3)c(C)c2c1` [Compound 44]: in test [1], the “Selectivity (MOR/KOR)” value was “+++ (between 100- to 1000-fold selective)” and the IC50 is 10 to 100 nM. This compound also registered a concentration for half-maximal inhibition (IC50) in test [2] of more than 1000 nM.

Turning to `CCc1cc(F)c2nc(N3CCN(C(=O)C4CN(C)C4)C[C@H]3C)c(-c3nc(C)no3)c(C)c2c1` [Compound 45], in test [1], the “Selectivity (MOR/KOR)” value is “++ (between 10- and 100-fold selectivity)”; the IC50 was in the range of 10 to 100 nM. Besides, the IC50 in test [2] was more than 1000 nM.

On to `CCc1cc(F)c2nc(N3CCN(C(=O)[C@@H]4CCCN4C)C[C@H]3C)c(-c3nc(C)no3)c(C)c2c1` [Compound 46], for which, in test [1], the “Selectivity (MOR/KOR)” value is on record as “+++ (between 100- to 1000-fold selective)” and the IC50 fell in the range of 10 to 100 nM. Besides, the IC50 in test [2] is more than 1000 nM.

Take `CCc1cc(F)c2nc(N3CCN(C(=O)CN4CCCC4)C[C@H]3C)c(-c3nc(C)no3)c(C)c2c1` [Compound 47, (R)-1-(4-(6-ethyl-8-fluoro-4-methyl-3-(3-methyl-1,2,4-oxadiazol-5-yl)quinolin-2-yl)-3-methylpiperazin-1-yl)-2-(pyrrolidin-1-yl)ethan-1-one]: in test [1], the “Selectivity (MOR/KOR)” value was “+++ (between 100- to 1000-fold selective)” and the IC50 is 1 to 10 nM. In test [2], this compound returned an IC50 of 100 to 1000 nM.

With `CCc1cc(F)c2nc(N3CCN(/C(=N/C#N)NC[C@H](Cc4ccc(O)cc4)N(C)C)C[C@H]3C)c(-c3nc(C)no3)c(C)c2c1` [Compound 48], in test [1], the “Selectivity (MOR/KOR)” value is “+ (less than 10-fold selectivity)” and the IC50 was 10 to 100 nM. The IC50 in test [2] is 100 to 1000 nM.

For `CCc1cc(F)c2nc(N3CCN(CC4CCOCC4)C[C@H]3C)c(-c3nc(C)no3)c(C)c2c1` [Compound 49, (R)-5-(6-ethyl-8-fluoro-4-methyl-2-(2-methyl-4-((tetrahydro-2H-pyran-4-yl)methyl)piperazin-1-yl)quinolin-3-yl)-3-methyl-1,2,4-oxadiazole], in test [1], the “Selectivity (MOR/KOR)” value is listed as “+++ (between 100- to 1000-fold selective)” and the IC50 was 10 to 100 nM. In test [2], this compound registered an IC50 of more than 1000 nM.

In the case of `Cc1noc(-c2c(N3CCN(CC4CCOCC4)C[C@H]3C)nc3c(F)cc(Cl)cc3c2C)n1` [Compound 50, (R)-5-(6-chloro-8-fluoro-4-methyl-2-(2-methyl-4-((tetrahydro-2H-pyran-4-yl)methyl)piperazin-1-yl)quinolin-3-yl)-3-methyl-1,2,4-oxadiazole], in test [1], the “Selectivity (MOR/KOR)” value was “++ (between 10- and 100-fold selectivity)”; the IC50 was not below 100 nM. For the same compound, the IC50 in test [2] is more than 1000 nM.

Consider `Cc1cc(Cl)c2nc(N3CCN(CC4CCOCC4)C[C@H]3C)c(-c3nc(C)no3)c(C)c2c1` [Compound 51, (R)-5-(8-chloro-4,6-dimethyl-2-(2-methyl-4-((tetrahydro-2H-pyran-4-yl)methyl)piperazin-1-yl)quinolin-3-yl)-3-methyl-1,2,4-oxadiazole], for which the “Selectivity (MOR/KOR)” value in test [1] is listed as “+++ (between 100- to 1000-fold selective)”. Besides, the values for the half-maximal inhibitory concentration (IC50) in test [1] and in test [2] were 1 to 10 nM and 100 to 1000 nM, respectively.

Consider `CCc1cc(F)c2nc(N3CCN(C(=O)[C@H](Cc4ccccc4)N(C)C)C[C@H]3C)c(-c3nc(C)no3)c(C)c2c1` [Compound 52], for which, in test [1], the “Selectivity (MOR/KOR)” value is “++ (between 10- and 100-fold selectivity)”; the IC50 was not below 100 nM. The same compound yielded an IC50 in test [2] of more than 1000 nM.

Take `CCc1cc(F)c2nc(N3CCN(/C(=N/C#N)NC4CC(F)(F)C4)C[C@H]3C)c(-c3nc(C)no3)c(C)c2c1` [Compound 54]: in test [1], the “Selectivity (MOR/KOR)” value is recorded as “+++ (between 100- to 1000-fold selective)” and the IC50 is less than 1 nM. The compound further had an IC50 in test [2] of 10 to 100 nM.

`CCc1cc(F)c2nc(N3CCN(/C(=N/C#N)NC)C[C@H]3C)c(-c3nc(C)no3)c(C)c2c1` [Compound 55]: in test [1], the “Selectivity (MOR/KOR)” value is “++ (between 10- and 100-fold selectivity)”; the IC50 lay within 10 to 100 nM. In addition, in test [2], the IC50 was more than 1000 nM.

For `CCc1cc(F)c2nc(N3CCN(/C(=N\C#N)NC4CCOCC4)C[C@H]3C)c(-c3nc(C)no3)c(C)c2c1` [Compound 56], in test [1], the “Selectivity (MOR/KOR)” value is “++ (between 10- and 100-fold selectivity)”; the IC50 was in the range of 10 to 100 nM. The IC50 in test [2] fell in the range of 100 to 1000 nM.

For the compound `CCc1cc(F)c2nc(N3CCN(C[C@@H]4CCOC4)C[C@H]3C)c(-c3ccn(C)n3)c(C)c2c1` [Compound 57], in test [1], the “Selectivity (MOR/KOR)” value is “++ (between 10- and 100-fold selectivity)”; the half-inhibitory concentration (IC50) is not below 100 nM. In test [2], this compound displayed a half-maximal inhibitory concentration (IC50) of more than 1000 nM.

For the compound `CCc1cc(F)c2nc(N3CCN(C[C@H]4CCOC4)C[C@H]3C)c(-c3ccn(C)n3)c(C)c2c1` [Compound 58], in test [1], the “Selectivity (MOR/KOR)” value is listed as “+++ (between 100- to 1000-fold selective)” and the IC50 is 10 to 100 nM. The same compound showed an IC50 in test [2] of more than 1000 nM.

As to `CCc1cc(F)c2nc(N3CCN(CC4CC(F)(F)C4)C[C@H]3C)c(-c3nc(C)no3)c(C)c2c1` [Compound 59, (R)-5-(2-(4-((3,3-difluorocyclobutyl)methyl)-2-methylpiperazin-1-yl)-6-ethyl-8-fluoro-4-methylquinolin-3-yl)-3-methyl-1,2,4-oxadiazole], in test [1], the “Selectivity (MOR/KOR)” value is recorded as “+++ (between 100- to 1000-fold selective)” and the half-inhibitory concentration (IC50) lay within 10 to 100 nM. In test [2], this compound gave an IC50 of more than 1000 nM.

For the compound `CCc1cc(F)c2nc(N3CCN(CC4CCOCC4)C4CC43)c(-c3nc(C)no3)c(C)c2c1` (centres unmarked) [Compound 60], the figures for the IC50 in test [1] and in test [2] were not below 100 nM and more than 1000 nM, respectively.

In the case of `CCc1cc(-c2ccnn2C)c2nc(N3CCN(CC4CC(F)(F)C4)C[C@H]3C)c(-c3ccn(C)n3)c(C)c2c1` [Compound 61], in test [1], the “Selectivity (MOR/KOR)” value is “++ (between 10- and 100-fold selectivity)”; the IC50 is not below 100 nM. The half-inhibitory concentration (IC50) in test [2] is more than 1000 nM.

Take `CCc1cc(-c2ccnn2C)c2nc(N3CCN(CC4CCOCC4)C[C@H]3C)c(-c3ccn(C)n3)c(C)c2c1` [Compound 62]: in test [1], the “Selectivity (MOR/KOR)” value is on record as “+++ (between 100- to 1000-fold selective)” and the IC50 is 1 to 10 nM. The compound also showed an IC50 in test [2] of 100 to 1000 nM.

As for `CCc1cc(F)c2nc(N3CCN(CC4CCOCC4)C[C@H]3C)c(-c3cc(C)no3)c(C)c2c1` [Compound 63, (R)-5-(6-ethyl-8-fluoro-4-methyl-2-(2-methyl-4-((tetrahydro-2H-pyran-4-yl)methyl)piperazin-1-yl)quinolin-3-yl)-3-methylisoxazole], in test [1], the “Selectivity (MOR/KOR)” value was “+++ (between 100- to 1000-fold selective)”. Moreover, the values for the IC50 in test [1] and in test [2] were 10 to 100 nM and more than 1000 nM, respectively.

Take `CCc1cc(F)c2nc(N3CCNC4CC43)c(-c3nc(C)no3)c(C)c2c1` (centres unmarked) [Compound 64]: in test [1], the “Selectivity (MOR/KOR)” value was “++ (between 10- and 100-fold selectivity)”; the IC50 was not below 100 nM. Besides, the IC50 in test [2] is more than 1000 nM.

As for `CCc1cc(F)c2nc(N3CCC(N[C@@H]4CCOC4)CC3)c(-c3cc(C)n(C)n3)c(C)c2c1` [Compound 66], in test [1], the “Selectivity (MOR/KOR)” value is recorded as “+++ (between 100- to 1000-fold selective)” and the IC50 fell in the range of 1 to 10 nM. The IC50 in test [2] was in the range of 100 to 1000 nM.

`CCc1cc(F)c2nc(N3CCC(N[C@H]4CCCC(F)(F)C4)CC3)c(-c3cc(C)n(C)n3)c(C)c2c1` [Compound 67]: in test [1], the “Selectivity (MOR/KOR)” value is “++ (between 10- and 100-fold selectivity)”; the IC50 was in the range of 1 to 10 nM. Further, the IC50 in test [2] lay within 10 to 100 nM.

Regarding `CCc1cc(F)c2nc(N3CC[C@H](NC4CCOCC4)[C@H](F)C3)c(-c3ccn(C)n3)c(C)c2c1F` [Compound 69], the “Selectivity (MOR/KOR)” value in test [1] is reported as “+++ (between 100- to 1000-fold selective)”. For the same compound, the IC50 in test [1] is 10 to 100 nM; in test [2] it was more than 1000 nM.

Take `CCc1cc(F)c2nc(N3CC[C@H](NC4CCOCC4)[C@H](F)C3)c(-c3nn(C)cc3F)c(C)c2c1F` [Compound 70]: in test [1], the “Selectivity (MOR/KOR)” value is recorded as “+++ (between 100- to 1000-fold selective)” and the IC50 fell in the range of 1 to 10 nM. The compound also returned an IC50 in test [2] of more than 1000 nM.

Take `CCc1cc(F)c2nc(N3CCC(N[C@@H]4COC[C@@H]4F)CC3)c(-c3ccn(C)n3)c(C)c2c1` [Compound 71, 1-(6-ethyl-8-fluoro-4-methyl-3-(1-methyl-1H-pyrazol-3-yl)quinolin-2-yl)-N-((3R,4R)-4-fluorotetrahydrofuran-3-yl)piperidin-4-amine]: in test [1], the “Selectivity (MOR/KOR)” value is given as “+++ (between 100- to 1000-fold selective)” and the IC50 is 1 to 10 nM. The IC50 in test [2] is more than 1000 nM.

In general, IC50 refers to the concentration at which inhibition is half-maximal. Low readings indicate greater potency, high ones weaker potency.
